Assay results published in PMC4664966, “Discovery and characterization of novel inhibitors of the sodium-coupled citrate transporter (NaCT or SLC13A5)” (Scientific Reports, 2015).
pIC50: −log10 of the molar value.

Experiments:
[1] = target: Phosphodiesterase 4D (PDE4D) (Homo sapiens, UniProt Q08499); assay: Selectivity data (Table S1); type: biochemical
[2] = target: Acetylcholinesterase (ACHE) (Homo sapiens, UniProt P22303); assay: Selectivity data (Table S1); type: biochemical
[3] = target: Serotonin transporter, sodium-dependent (5-HTT) (Homo sapiens, UniProt P31645); assay: Selectivity data (Table S1)
[4] = target: Histamine receptor 2 (H2) (Homo sapiens, UniProt P25021); assay: Selectivity data (Table S1); type: binding
[5] = target: Angiotensin-converting enzyme 1 (ACE1) (Homo sapiens, UniProt P12821); assay: Selectivity data (Table S1); type: biochemical
[6] = target: Phosphodiesterase 4D3 (PDE4D3) (Homo sapiens, UniProt Q08499); assay: Selectivity data (Table S1); type: biochemical
Plasma fraction unbound = type: in vitro ADME; conditions: mouse, read-out: mouse plasma fu
[7] = target: Cytochrome P450 2C9 (CYP2C9) (Homo sapiens, UniProt P11712); assay: Selectivity data (Table S1); type: in vitro ADME
CYP2C9 = CYP2C9 (Homo sapiens, UniProt P11712); assay: Selectivity data (Table S1); type: in vitro ADME; conditions: 3 µM
[8] = target: Cyclooxygenase 2 (prostaglandin endoperoxide synthase 2) (Homo sapiens, UniProt P35354); assay: Selectivity data (Table S1); type: biochemical
HepG2 cells = assay: Cellular toxicity in HepG2 cells; type: cell-based; conditions: concentrations up to 300 μM and 72 hours incubation
[9] = target: Angiotensin II receptor type 1 (AGTR1) (Homo sapiens, UniProt P30556); assay: Selectivity data (Table S1); type: binding
[10] = target: Arginine vasopressin receptor 1A (AVPR1A) (Homo sapiens, UniProt P37288); assay: Selectivity data (Table S1); type: binding
[11] = target: Diacylglycerol acyltransferase 1 (DGAT1) (Homo sapiens, UniProt O75907); assay: Selectivity data (Table S1); type: biochemical
[12] = target: Monoacylglycerol acyltransferase 1 (MGAT1) (Homo sapiens, UniProt Q96PD6); assay: Selectivity data (Table S1); type: biochemical
[13] = target: Serotonin receptor 1A (5-HT1A) (Homo sapiens, UniProt P08908); assay: Selectivity data (Table S1); type: binding
Dopamine receptor 1 (D1) = Dopamine receptor 1 (D1) (Homo sapiens, UniProt P21728); assay: Selectivity data (Table S1); type: binding
Endothelin (ETA) = Endothelin (ETA) (Homo sapiens, UniProt P25101); assay: Selectivity data (Table S1); type: binding
[14] = target: Choline transporter (CHT1) (SLC5A7) (Homo sapiens, UniProt Q9GZV3); assay: Selectivity data (Table S1)
Choline transporter (CHT1) (SLC5A7), sequence (Q9GZV3 whole entry): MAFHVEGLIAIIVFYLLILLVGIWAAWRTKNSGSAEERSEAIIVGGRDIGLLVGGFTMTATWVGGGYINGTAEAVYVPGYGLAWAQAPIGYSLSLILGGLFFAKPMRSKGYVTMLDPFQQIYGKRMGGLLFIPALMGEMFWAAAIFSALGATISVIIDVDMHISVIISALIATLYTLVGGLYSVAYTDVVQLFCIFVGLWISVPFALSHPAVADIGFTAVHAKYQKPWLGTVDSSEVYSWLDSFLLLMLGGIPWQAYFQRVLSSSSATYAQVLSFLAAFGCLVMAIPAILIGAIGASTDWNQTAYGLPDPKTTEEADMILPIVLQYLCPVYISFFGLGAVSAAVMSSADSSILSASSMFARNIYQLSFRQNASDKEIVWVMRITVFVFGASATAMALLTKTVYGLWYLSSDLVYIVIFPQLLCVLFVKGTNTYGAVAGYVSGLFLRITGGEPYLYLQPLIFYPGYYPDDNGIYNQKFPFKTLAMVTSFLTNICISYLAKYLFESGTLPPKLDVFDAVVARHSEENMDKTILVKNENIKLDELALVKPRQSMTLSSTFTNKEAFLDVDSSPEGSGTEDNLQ

Arginine vasopressin receptor 1A (AVPR1A), sequence (P37288 whole entry): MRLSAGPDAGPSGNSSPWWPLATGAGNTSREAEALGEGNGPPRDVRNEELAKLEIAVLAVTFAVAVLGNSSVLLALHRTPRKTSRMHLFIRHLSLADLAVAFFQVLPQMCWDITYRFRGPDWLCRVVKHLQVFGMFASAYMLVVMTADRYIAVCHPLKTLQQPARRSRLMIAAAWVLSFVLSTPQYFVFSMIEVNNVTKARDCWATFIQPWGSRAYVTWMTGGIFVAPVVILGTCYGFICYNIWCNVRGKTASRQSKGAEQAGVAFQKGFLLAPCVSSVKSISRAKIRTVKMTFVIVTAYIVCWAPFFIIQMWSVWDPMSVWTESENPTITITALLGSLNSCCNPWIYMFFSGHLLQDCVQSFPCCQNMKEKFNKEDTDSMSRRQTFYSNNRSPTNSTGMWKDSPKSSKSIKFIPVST
Histamine receptor 2 (H2), sequence (P25021 whole entry): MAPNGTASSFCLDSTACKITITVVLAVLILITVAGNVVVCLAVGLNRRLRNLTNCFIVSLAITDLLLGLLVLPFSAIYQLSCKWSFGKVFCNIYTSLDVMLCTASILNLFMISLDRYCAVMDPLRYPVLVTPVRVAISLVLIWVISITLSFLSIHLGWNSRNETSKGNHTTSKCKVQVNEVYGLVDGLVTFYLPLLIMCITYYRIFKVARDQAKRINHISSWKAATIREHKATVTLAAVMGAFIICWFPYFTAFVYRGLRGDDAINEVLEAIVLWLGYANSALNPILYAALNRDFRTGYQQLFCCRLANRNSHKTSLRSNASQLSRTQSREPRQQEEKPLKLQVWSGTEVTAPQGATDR
Angiotensin II receptor type 1 (AGTR1), sequence (P30556 whole entry): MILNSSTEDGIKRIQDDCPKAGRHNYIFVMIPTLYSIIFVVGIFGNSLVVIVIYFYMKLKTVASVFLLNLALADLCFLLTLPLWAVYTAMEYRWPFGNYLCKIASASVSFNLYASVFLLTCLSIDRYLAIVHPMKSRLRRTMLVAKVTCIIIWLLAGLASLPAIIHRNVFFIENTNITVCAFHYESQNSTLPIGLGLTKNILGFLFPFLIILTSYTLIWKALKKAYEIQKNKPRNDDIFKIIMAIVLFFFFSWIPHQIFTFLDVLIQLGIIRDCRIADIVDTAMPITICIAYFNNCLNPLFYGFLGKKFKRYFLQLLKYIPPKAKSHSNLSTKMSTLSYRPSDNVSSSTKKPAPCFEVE
Dopamine receptor 1 (D1), sequence (P21728 whole entry): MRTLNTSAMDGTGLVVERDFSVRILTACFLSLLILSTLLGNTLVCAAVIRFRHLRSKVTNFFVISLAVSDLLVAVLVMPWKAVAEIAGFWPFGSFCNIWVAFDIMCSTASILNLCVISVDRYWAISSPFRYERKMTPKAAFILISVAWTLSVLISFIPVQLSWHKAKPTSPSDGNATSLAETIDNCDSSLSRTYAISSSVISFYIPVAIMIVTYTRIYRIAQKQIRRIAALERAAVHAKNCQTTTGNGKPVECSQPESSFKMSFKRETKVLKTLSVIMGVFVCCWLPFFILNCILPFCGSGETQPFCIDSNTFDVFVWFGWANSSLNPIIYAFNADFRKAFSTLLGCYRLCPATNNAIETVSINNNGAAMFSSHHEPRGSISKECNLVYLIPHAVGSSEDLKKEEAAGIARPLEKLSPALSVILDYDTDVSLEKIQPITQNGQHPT
Angiotensin-converting enzyme 1 (ACE1), sequence (P12821 30-1306): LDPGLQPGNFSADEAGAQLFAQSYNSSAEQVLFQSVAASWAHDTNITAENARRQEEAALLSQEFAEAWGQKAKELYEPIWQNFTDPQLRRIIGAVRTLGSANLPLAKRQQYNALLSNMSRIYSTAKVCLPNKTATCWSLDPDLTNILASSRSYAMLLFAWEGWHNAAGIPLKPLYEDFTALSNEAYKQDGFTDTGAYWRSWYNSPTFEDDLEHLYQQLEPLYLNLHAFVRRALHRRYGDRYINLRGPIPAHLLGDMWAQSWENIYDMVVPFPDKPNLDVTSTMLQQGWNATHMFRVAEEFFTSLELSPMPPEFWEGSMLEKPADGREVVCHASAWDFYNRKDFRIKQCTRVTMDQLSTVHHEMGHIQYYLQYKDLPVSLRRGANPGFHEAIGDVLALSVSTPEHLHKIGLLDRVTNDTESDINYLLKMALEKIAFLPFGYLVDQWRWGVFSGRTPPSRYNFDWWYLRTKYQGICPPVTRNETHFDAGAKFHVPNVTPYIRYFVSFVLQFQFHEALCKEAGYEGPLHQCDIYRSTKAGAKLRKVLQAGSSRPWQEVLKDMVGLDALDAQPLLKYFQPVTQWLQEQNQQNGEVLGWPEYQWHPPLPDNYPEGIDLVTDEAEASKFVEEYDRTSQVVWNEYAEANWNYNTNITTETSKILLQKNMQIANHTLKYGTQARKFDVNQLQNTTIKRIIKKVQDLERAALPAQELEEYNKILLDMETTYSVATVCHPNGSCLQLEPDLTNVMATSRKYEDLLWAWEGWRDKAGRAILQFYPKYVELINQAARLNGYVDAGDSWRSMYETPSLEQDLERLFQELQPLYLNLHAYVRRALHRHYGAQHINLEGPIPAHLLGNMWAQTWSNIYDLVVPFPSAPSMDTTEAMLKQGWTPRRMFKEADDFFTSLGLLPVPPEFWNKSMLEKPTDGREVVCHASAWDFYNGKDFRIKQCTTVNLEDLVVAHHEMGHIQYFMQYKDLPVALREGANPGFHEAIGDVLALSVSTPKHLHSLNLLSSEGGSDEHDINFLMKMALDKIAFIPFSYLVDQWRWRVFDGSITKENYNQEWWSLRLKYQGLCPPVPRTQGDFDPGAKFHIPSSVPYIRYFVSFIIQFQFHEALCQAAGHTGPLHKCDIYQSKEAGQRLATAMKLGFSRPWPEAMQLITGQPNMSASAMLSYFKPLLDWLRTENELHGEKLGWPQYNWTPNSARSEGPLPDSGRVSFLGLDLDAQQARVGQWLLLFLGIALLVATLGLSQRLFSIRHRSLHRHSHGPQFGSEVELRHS
Serotonin receptor 1A (5-HT1A), sequence (P08908 whole entry): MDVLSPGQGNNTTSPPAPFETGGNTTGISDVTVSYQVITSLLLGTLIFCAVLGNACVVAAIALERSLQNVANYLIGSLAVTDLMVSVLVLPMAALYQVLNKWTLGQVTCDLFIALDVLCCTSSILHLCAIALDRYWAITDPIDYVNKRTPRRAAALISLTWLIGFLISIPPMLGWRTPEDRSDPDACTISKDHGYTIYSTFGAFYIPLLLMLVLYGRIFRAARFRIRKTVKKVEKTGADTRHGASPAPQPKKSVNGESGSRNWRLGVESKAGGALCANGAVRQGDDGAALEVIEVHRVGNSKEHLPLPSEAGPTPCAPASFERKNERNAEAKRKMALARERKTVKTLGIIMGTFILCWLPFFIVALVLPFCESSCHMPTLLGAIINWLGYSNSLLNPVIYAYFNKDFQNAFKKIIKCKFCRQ
Cytochrome P450 2C9 (CYP2C9), sequence (P11712 whole entry): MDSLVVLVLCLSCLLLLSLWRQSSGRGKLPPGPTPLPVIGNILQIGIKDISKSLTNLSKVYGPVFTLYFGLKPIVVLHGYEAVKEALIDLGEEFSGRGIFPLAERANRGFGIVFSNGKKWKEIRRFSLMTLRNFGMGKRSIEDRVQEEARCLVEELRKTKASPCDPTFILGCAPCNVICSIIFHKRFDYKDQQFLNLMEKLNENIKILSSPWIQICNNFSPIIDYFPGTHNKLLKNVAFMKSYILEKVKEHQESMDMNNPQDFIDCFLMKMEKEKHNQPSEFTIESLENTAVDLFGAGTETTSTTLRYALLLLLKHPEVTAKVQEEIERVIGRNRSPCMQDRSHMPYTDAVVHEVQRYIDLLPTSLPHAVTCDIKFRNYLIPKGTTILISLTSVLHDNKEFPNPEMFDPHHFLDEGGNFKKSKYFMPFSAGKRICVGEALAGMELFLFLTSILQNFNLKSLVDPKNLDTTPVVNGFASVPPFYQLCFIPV
CYP2C9, sequence (P11712 whole entry): as above

For CC(C)(C)c1ccc(CC[C@@](O)(CC(=O)O)C(=O)O)cc1 [Compound 2], the inhibition at 100 µM [1] was less than 10%, the inhibition at 100 µM [2] was less than 10% and the inhibition at 100 µM [3] was less than 10%. It also gave an inhibition at 100 µM [4] of less than 10%, an inhibition at 100 µM [5] of less than 10% and a pIC50 [6] of less than 4.52. The fraction unbound (Plasma fraction unbound) was 0.26, the “interaction/inhibition of CYP2C9” value [7] was “no significant interaction/inhibition” and the inhibition at 3 µM (CYP2C9) was less than 10%. The inhibition at 100 µM [8] was 22%, the cellular toxicity (HepG2 cells) was “no observable toxicity” and the inhibition at 100 µM [9] was less than 10%. It also gave an inhibition at 100 µM [10] of less than 10%, a pIC50 [11] of less than 4.30 and a pIC50 [12] of less than 4.30. The inhibition at 100 µM [13] was less than 10%, the inhibition at 100 µM (Dopamine receptor 1 (D1)) was less than 10% and the inhibition at 100 µM (Endothelin (ETA)) was less than 10%. The inhibition at 100 µM [14] was less than 10%.
